In patent US20250188110A1, “SPECIFIC SMALL MOLECULE INHIBITORS THAT BLOCK KMT9 METHYLTRANSFERASE ACTIVITY AND FUNCTION” (ALBERT-LUDWIGS-UNIVERSITÄT FREIBURG, priority 2021, published 2025):

What was measured:
KMT9 [1] = target: T1, KMT9 (Homo sapiens, UniProt Q9Y5N5); assay: Microscale thermophoresis (MST) KMT9 binding; details: microscale thermophoresis, His-tag labelled KMT9 (20 nM); read-out: MST
T1 sequence (Q9Y5N5 1-214): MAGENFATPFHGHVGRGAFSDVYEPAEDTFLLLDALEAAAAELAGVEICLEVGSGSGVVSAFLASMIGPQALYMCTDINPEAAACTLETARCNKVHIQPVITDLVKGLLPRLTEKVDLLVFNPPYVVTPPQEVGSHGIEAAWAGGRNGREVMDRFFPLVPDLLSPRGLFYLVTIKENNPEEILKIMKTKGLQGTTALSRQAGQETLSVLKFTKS
T1 sequence (Q9UI30 1-120 isoform Q9UI30-2 partner): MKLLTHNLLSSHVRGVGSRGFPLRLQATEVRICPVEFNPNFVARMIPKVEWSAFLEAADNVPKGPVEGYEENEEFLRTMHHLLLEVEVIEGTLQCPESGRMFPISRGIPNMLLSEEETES
Method in brief: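 Kd from microscale thermophoresis: compound series against 20 nM His-KMT9 labelled via RED-Tris-NTA, buffer 25 mM HEPES (pH 7.5)/100 mM NaCl/1 mM DTT/0.05% Tween, 40% MST power, 100% LED. Reported as classes: A ≤10 nM, B >10–100 nM, C >100–1000 nM, D >1000 nM.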

KMT9 [2] = target: T1, KMT9; assay: KMT9 methyltransferase inhibition assay, 3H-SAM scintillation (entries 1-154); type: biochemical; details: entries 1-154: 3H-SAM assay, 25 nM KMT9, 5 μM ETF1
Method in brief: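 Tritium transfer from SAM (0.3 μM 3H-SAM, 0.7 μM unlabelled, final) to 5 μM ETF1 fragment by 25 nM KMT9 was measured after 2 h at 30° C, pH 8.5. Precipitated peptide was collected on filters and scintillation counted; IC50 came from a four-parameter fit of inhibition normalised to controls.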

KMT9 [3] = target: T1, KMT9; assay: KMT9 thermal shift assay (SyproOrange); type: binding; details: ΔTm; 500 µM compound, 2 μM KMT9, 5X SO; read-out: Thermal shift
Method in brief: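 ΔTm versus DMSO-only control is reported in bins (>20 K, 15–20 K, 10–15 K, ≤10 K), using Tm from Boltzmann sigmoidal fits of SyproOrange melt curves. KMT9 with compound in pH 8.5 BTP buffer containing MgCl2 and DTT was preincubated at 25° C, then ramped 1° C per 15 s up to 95° C.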

Row | Kd (KMT9 [1]) [nM] | IC50 (KMT9 [2]) [nM] | ΔTm at 500 µM (KMT9 [3]) [°C] | Structure (SMILES)
1 | > 1000 | 1000 to 10000 | ≤ 10 | CNc1ncnc2c1ccn2[C@@H]1C[C@H](CN(CCCN)c2cncs2)[C@@H](O)[C@H]1O [437 (309), (1S,2R,3R,5R)-3-{[(3-Aminopropyl)(1,3-thiazol-5-yl)amino]methyl}-5-[4-(methylamino)pyrrolo[2,3-d]pyrimidin-7-yl]cyclopentane-1,2-diol]
2 | > 1000 | > 10000 | ≤ 10 | CNc1ncnc2c1ccn2[C@@H]1C[C@H](CN(C[C@H]2CCCNC2)c2cncs2)[C@@H](O)[C@H]1O [438 (310), (1R,2S,3R,5R)-3-[4-(Methylamino)pyrrolo[2,3-d]pyrimidin-7-yl]-5-({[(3S)-piperidin-3-ylmethyl](1,3-thiazol-5-yl)amino}methyl) cyclopentane-1,2-diol]
3 | > 1000 | 1000 to 10000 | ≤ 10 | CNc1ncnc2c1ccn2[C@@H]1C[C@H](CN(CCCNCCc2ccccc2)c2cncs2)[C@@H](O)[C@H]1O [439 (311), (1R,2S,3R,5R)-3-(4-(Methylamino)-7H-pyrrolo[2,3-d]pyrimidin-7-yl)-5-(((3-(phenethylamino)propyl)(thiazol-5-yl)amino)methyl) cyclopentane-1,2-diol]
4 | > 1000 | > 10000 | ≤ 10 | CNc1ncnc2c1ccn2[C@@H]1C[C@H](CN(CCCNCCc2ccccc2)c2ccccc2)[C@@H](O)[C@H]1O [440 (312), (1R,2S,3R,5R)-3-(4-(Methylamino)-7H-pyrrolo[2,3-d]pyrimidin-7-yl)-5-(((3-(phenethylamino)propyl)(phenyl)amino)methyl)cyclopentane-12-diol]
5 | > 1000 | > 10000 | ≤ 10 | CNc1ncnc2c1ccn2[C@@H]1C[C@H](CN(CCCNCCc2ccccc2)c2cnn(C)c2)[C@@H](O)[C@H]1O [441 (313), (1S,2R,3R,5R)-3-(((1-Methyl-1H-pyrazol-4-yl)(3-(phenethylamino)propyl)amino)methyl)-5-(4-(methylamino)-7H-pyrrolo[2,3-d]pyrimidin-7-yl) cyclopentane-1,2-diol]
6 | 100 to 1000 | 1000 to 10000 | 10 to 15 | CNc1ncnc2c1ccn2[C@@H]1C[C@H](CN(CCCNCCc2ccccc2)c2cn[nH]c2)[C@@H](O)[C@H]1O [442 (314), (1R,2S,3R,5R)-3-(4-(Methylamino)-7H-pyrrolo[2,3-d]pyrimidin-7-yl)-5-(((3-(phenethylamino)propyl)(1H-pyrazol-4-yl)amino)methyl) cyclopentane-1,2-diol]
7 | > 1000 | > 10000 | ≤ 10 | CNc1ncnc2c1ccn2[C@@H]1C[C@H](CN(CCCNCCc2ccccc2)c2ccn(C)n2)[C@@H](O)[C@H]1O [443 (315), (1R,2S,3R,5R)-3-[4-(Methylamino)pyrrolo[2,3-d]pyrimidin-7-yl]-5-{[(1-methylpyrazol-3-yl)({3-[(2-phenylethyl)amino]propyl})amino]methyl}cyclopentane-1,2-diol]
8 | > 1000 | 1000 to 10000 | ≤ 10 | CNc1ncnc2c1ccn2[C@@H]1C[C@H](CN(CCCNCCc2ccccc2)c2cc[nH]n2)[C@@H](O)[C@H]1O [444 (316)]
9 | > 1000 | > 10000 | ≤ 10 | CNc1ncnc2c1ccn2[C@@H]1C[C@H](CN2CCC23CNC3)[C@@H](O)[C@H]1O [445 (317), (1S,2R,3R,5R)-3-((1,6-Diazaspiro[3.3]heptan-1-yl)methyl)-5-(4-(methylamino)-7H-pyrrolo[2,3-d]pyrimidin-7-yl) cyclopentane-1,2-diol]
10 | > 1000 | > 10000 | ≤ 10 | CNc1ncnc2c1ccn2[C@@H]1C[C@H](CN2CCC23CCNC3)[C@@H](O)[C@H]1O (stereo partly drawn) [446 (318), (1S,2R,3R,5R)-3-{1,6-Diazaspiro[3.4]octan-1-ylmethyl}-5-[4-(methylamino)pyrrolo[2,3-d]pyrimidin-7-yl]cyclopentane-1,2-diol]
11 | > 1000 | > 10000 | ≤ 10 | CNc1ncnc2c1ccn2[C@@H]1C[C@H](CN2CCC23CCCNC3)[C@@H](O)[C@H]1O (stereo partly drawn) [447 (319), (1S,2R,3R,5R)-3-{1,6-Diazaspiro[3.5]nonan-1-ylmethyl}-5-[4-(methylamino)pyrrolo[2,3-d]pyrimidin-7-yl]cyclopentane-1,2-diol]
12 | > 1000 | > 10000 | ≤ 10 | CNc1ncnc2c1ccn2[C@@H]1C[C@H](CN2CCCCC23CCNC3)[C@@H](O)[C@H]1O (stereo partly drawn) [448 (320), (1S,2R,3R,5R)-3-{2,6-diazaspiro[4.5]decan-6-ylmethyl}-5-[4-(methylamino)pyrrolo[2,3-d]pyrimidin-7-yl]cyclopentane-1,2-diol]
13 | > 1000 | > 10000 | ≤ 10 | CNc1ncnc2c1ccn2[C@@H]1C[C@H](CN2CCCC23CCNCC3)[C@@H](O)[C@H]1O [451 (323), (1S,2R,3R,5R)-3-((1,8-Diazaspiro[4.5]decan-1-yl)methyl)-5-(4-(methylamino)-7H-pyrrolo[2,3-d]pyrimidin-7-yl) cyclopentane-1,2-diol]
14 | 10 to 100 | 100 to 1000 | 15 to 20 | Nc1ncnc2c1c(Br)cn2[C@@H]1C[C@H](C(=O)NCCCNCCc2ccccc2)[C@@H](O)[C@H]1O [452 (324), (1S,2R,3S,4R)-4-(4-Amino-5-bromo-7H-pyrrolo[2,3-d]pyrimidin-7-yl)-2,3-dihydroxy-N-(3-(phenethylamino)propyl) cyclopentane-1-carboxamide]
15 | 100 to 1000 | > 10000 | 10 to 15 | Nc1ncnc2c1c(Br)cn2[C@@H]1C[C@H](C(=O)NC[C@H]2CCCNC2)[C@@H](O)[C@H]1O [453 (325), (1S,2R,3S,4R)-4-(4-Amino-5-bromo-7H-pyrrolo[2,3-d]pyrimidin-7-yl)-2,3-dihydroxy-N-(((S)-piperidin-3-yl)methyl) cyclopentane-1-carboxamide]
16 | 100 to 1000 | > 10000 | 10 to 15 | Nc1ncnc2c1c(Br)cn2[C@@H]1C[C@H](C(=O)NC[C@@H]2CCCNC2)[C@@H](O)[C@H]1O [454 (326), (1S,2R,3S,4R)-4-(4-Amino-5-bromo-7H-pyrrolo[2,3-d]pyrimidin-7-yl)-2,3-dihydroxy-N-(((R)-piperidin-3-yl)methyl) cyclopentane-1-carboxamide]
17 | > 1000 | > 10000 | 10 to 15 | Nc1ncnc2c1c(Br)cn2[C@@H]1C[C@H](CNC[C@H]2CCCNC2)[C@@H](O)[C@H]1O [455 (327), (1R,2S,3R,5R)-3-(4-Amino-5-bromo-7H-pyrrolo[2,3-d]pyrimidin-7-yl)-5-(((((S)-piperidin-3-yl)methyl)amino)methyl)cyclopentane-1,2-diol]
18 | > 1000 | > 10000 | 10 to 15 | Nc1ncnc2c1c(Br)cn2[C@@H]1C[C@H](CNC[C@@H]2CCCNC2)[C@@H](O)[C@H]1O [456 (328), (1R,2S,3R,5R)-3-(4-Amino-5-bromo-7H-pyrrolo[2,3-d]pyrimidin-7-yl)-5-(((((R)-piperidin-3-yl)methyl)amino)methyl) cyclopentane-1,2-diol]
19 | 10 to 100 | 100 to 1000 | 15 to 20 | Nc1ncnc2c1c(Br)cn2[C@@H]1C[C@H](CNCCCNCCc2cccc(Oc3ccccc3)c2)[C@@H](O)[C@H]1O [457 (329)]
